Test results: the supplement of paper PMC10307832

Columns and labels:
Experiment in all cases: relative viability (nuclei count vs DMSO), 5 days (fraction); higher = more cells survive
IU1-47 + Vorinostat = compound: CC1=CC(=C(N1C2=CC=C(C=C2)Cl)C)C(=O)CN3CCCCC3 [IU1-47] + O=C(CCCCCCC(=O)Nc1ccccc1)NO [Vorinostat] (partner 1 µM)
How it was run: (§1)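 Cells from lung cancer lines were seeded into 1536-well plates and, one day later, dosed by pin tool. Treatments were either a single drug or a fixed dose of an anchor drug with five library-drug doses (not always all listed) in √10 steps. After 5 days, nuclei were stained in a one-step fixation (final 0.05% Triton X-100, 1% formaldehyde, 1 ug/ml Hoechst) and counted on 4× images, and relative viability is the treated-to-vehicle nuclei ratio, as the median of duplicate plates.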

IU1-47 + Decitabine = compound: CC1=CC(=C(N1C2=CC=C(C=C2)Cl)C)C(=O)CN3CCCCC3 [IU1-47] + Nc1ncn([C@H]2C[C@H](O)[C@@H](CO)O2)c(=O)n1 [Decitabine] (partner 2 µM)
How it was run: as §1

FG-4592 + Lapatinib = compound: Cc1nc(C(=O)NCC(=O)O)c(O)c2ccc(Oc3ccccc3)cc12 [FG-4592] + CS(=O)(=O)CCNCc1ccc(-c2ccc3ncnc(Nc4ccc(OCc5cccc(F)c5)c(Cl)c4)c3c2)o1 [Lapatinib] (partner 2 µM)
How it was run: as §1

FG-4592 + Alpelisib = compound: Cc1nc(C(=O)NCC(=O)O)c(O)c2ccc(Oc3ccccc3)cc12 [FG-4592] + Cc1nc(NC(=O)N2CCC[C@H]2C(N)=O)sc1-c1ccnc(C(C)(C)C(F)(F)F)c1 [Alpelisib] (partner 2 µM)
How it was run: as §1

## LXF-289
IU1-47 + Vorinostat; first compound 0.08 µM
  relative viability: 0.699
IU1-47 + Vorinostat; first compound 0.253 µM
  relative viability: 0.839
IU1-47 + Vorinostat; first compound 0.8 µM
  relative viability: 0.946
IU1-47 + Vorinostat; first compound 2.53 µM
  relative viability: 0.751
IU1-47 + Vorinostat; first compound 8 µM
  relative viability: 0.752
IU1-47 + Decitabine; first compound 0.08 µM
  relative viability: 0.377
IU1-47 + Decitabine; first compound 0.253 µM
  relative viability: 0.367
IU1-47 + Decitabine; first compound 0.8 µM
  relative viability: 0.397
IU1-47 + Decitabine; first compound 2.53 µM
  relative viability: 0.367
IU1-47 + Decitabine; first compound 8 µM
  relative viability: 0.346
FG-4592 + Lapatinib; first compound 0.08 µM
  relative viability: 0.93
FG-4592 + Lapatinib; first compound 0.253 µM
  relative viability: 0.881
FG-4592 + Lapatinib; first compound 0.8 µM
  relative viability: 0.937
FG-4592 + Lapatinib; first compound 2.53 µM
  relative viability: 0.946
FG-4592 + Lapatinib; first compound 8 µM
  relative viability: 0.945
FG-4592 + Alpelisib; first compound 0.08 µM
  relative viability: 0.974
FG-4592 + Alpelisib; first compound 0.253 µM
  relative viability: 0.963
FG-4592 + Alpelisib; first compound 0.8 µM
  relative viability: 1.06
FG-4592 + Alpelisib; first compound 2.53 µM
  relative viability: 1.05
FG-4592 + Alpelisib; first compound 8 µM
  relative viability: 1.09

## NCI-H23
IU1-47 + Vorinostat; first compound 0.08 µM
  relative viability: 0.661
IU1-47 + Vorinostat; first compound 0.8 µM
  relative viability: 0.653
IU1-47 + Vorinostat; first compound 2.53 µM
  relative viability: 0.666
IU1-47 + Vorinostat; first compound 8 µM
  relative viability: 0.622
IU1-47 + Decitabine; first compound 0.08 µM
  relative viability: 0.347
IU1-47 + Decitabine; first compound 0.8 µM
  relative viability: 0.312
IU1-47 + Decitabine; first compound 2.53 µM
  relative viability: 0.319
IU1-47 + Decitabine; first compound 8 µM
  relative viability: 0.302
FG-4592 + Lapatinib; first compound 0.08 µM
  relative viability: 1.09
FG-4592 + Lapatinib; first compound 0.253 µM
  relative viability: 1.07
FG-4592 + Lapatinib; first compound 0.8 µM
  relative viability: 0.953
FG-4592 + Lapatinib; first compound 2.53 µM
  relative viability: 0.772
FG-4592 + Lapatinib; first compound 8 µM
  relative viability: 1.01
FG-4592 + Alpelisib; first compound 0.08 µM
  relative viability: 0.663
FG-4592 + Alpelisib; first compound 0.253 µM
  relative viability: 0.678
FG-4592 + Alpelisib; first compound 0.8 µM
  relative viability: 0.772
FG-4592 + Alpelisib; first compound 2.53 µM
  relative viability: 0.679
FG-4592 + Alpelisib; first compound 8 µM
  relative viability: 0.673

## NCI-H322M
IU1-47 + Vorinostat; first compound 0.08 µM
  relative viability: 0.935
IU1-47 + Vorinostat; first compound 0.253 µM
  relative viability: 0.968
IU1-47 + Vorinostat; first compound 0.8 µM
  relative viability: 0.907
IU1-47 + Vorinostat; first compound 2.53 µM
  relative viability: 0.894
IU1-47 + Vorinostat; first compound 8 µM
  relative viability: 0.885
IU1-47 + Decitabine; first compound 0.08 µM
  relative viability: 0.776
IU1-47 + Decitabine; first compound 0.253 µM
  relative viability: 0.807
IU1-47 + Decitabine; first compound 0.8 µM
  relative viability: 0.645
IU1-47 + Decitabine; first compound 2.53 µM
  relative viability: 0.683
IU1-47 + Decitabine; first compound 8 µM
  relative viability: 0.652
FG-4592 + Lapatinib; first compound 0.08 µM
  relative viability: 0.451
FG-4592 + Lapatinib; first compound 0.253 µM
  relative viability: 0.621
FG-4592 + Lapatinib; first compound 0.8 µM
  relative viability: 0.631
FG-4592 + Lapatinib; first compound 2.53 µM
  relative viability: 0.646
FG-4592 + Lapatinib; first compound 8 µM
  relative viability: 0.633
FG-4592 + Alpelisib; first compound 0.08 µM
  relative viability: 0.194
FG-4592 + Alpelisib; first compound 0.253 µM
  relative viability: 0.797
FG-4592 + Alpelisib; first compound 0.8 µM
  relative viability: 0.595
FG-4592 + Alpelisib; first compound 2.53 µM
  relative viability: 0.941
FG-4592 + Alpelisib; first compound 8 µM
  relative viability: 0.852

## NCI-H358
IU1-47 + Vorinostat; first compound 0.08 µM
  relative viability: 0.828
IU1-47 + Vorinostat; first compound 0.253 µM
  relative viability: 0.708
IU1-47 + Vorinostat; first compound 0.8 µM
  relative viability: 0.72
IU1-47 + Vorinostat; first compound 2.53 µM
  relative viability: 0.781
IU1-47 + Vorinostat; first compound 8 µM
  relative viability: 0.619
IU1-47 + Decitabine; first compound 0.08 µM
  relative viability: 0.242
IU1-47 + Decitabine; first compound 0.253 µM
  relative viability: 0.204
IU1-47 + Decitabine; first compound 0.8 µM
  relative viability: 0.2
IU1-47 + Decitabine; first compound 2.53 µM
  relative viability: 0.201
IU1-47 + Decitabine; first compound 8 µM
  relative viability: 0.21
FG-4592 + Lapatinib; first compound 0.08 µM
  relative viability: 0.501
FG-4592 + Lapatinib; first compound 0.253 µM
  relative viability: 0.413
FG-4592 + Lapatinib; first compound 0.8 µM
  relative viability: 0.497
FG-4592 + Lapatinib; first compound 2.53 µM
  relative viability: 0.437
FG-4592 + Lapatinib; first compound 8 µM
  relative viability: 0.453
FG-4592 + Alpelisib; first compound 0.08 µM
  relative viability: 0.864
FG-4592 + Alpelisib; first compound 0.253 µM
  relative viability: 0.686
FG-4592 + Alpelisib; first compound 0.8 µM
  relative viability: 0.952
FG-4592 + Alpelisib; first compound 2.53 µM
  relative viability: 0.865
FG-4592 + Alpelisib; first compound 8 µM
  relative viability: 0.717

## NCI-H460
IU1-47 + Vorinostat; first compound 0.08 µM
  relative viability: 0.766
IU1-47 + Vorinostat; first compound 0.253 µM
  relative viability: 0.724
IU1-47 + Vorinostat; first compound 0.8 µM
  relative viability: 1.05
IU1-47 + Vorinostat; first compound 2.53 µM
  relative viability: 0.819
IU1-47 + Vorinostat; first compound 8 µM
  relative viability: 0.801
IU1-47 + Decitabine; first compound 0.08 µM
  relative viability: 0.536
IU1-47 + Decitabine; first compound 0.253 µM
  relative viability: 0.494
IU1-47 + Decitabine; first compound 0.8 µM
  relative viability: 0.563
IU1-47 + Decitabine; first compound 2.53 µM
  relative viability: 0.51
IU1-47 + Decitabine; first compound 8 µM
  relative viability: 0.579
FG-4592 + Lapatinib; first compound 0.08 µM
  relative viability: 0.923
FG-4592 + Lapatinib; first compound 0.253 µM
  relative viability: 0.768
FG-4592 + Lapatinib; first compound 0.8 µM
  relative viability: 1.05
FG-4592 + Lapatinib; first compound 2.53 µM
  relative viability: 0.94
FG-4592 + Lapatinib; first compound 8 µM
  relative viability: 1.1
FG-4592 + Alpelisib; first compound 0.08 µM
  relative viability: 0.549
FG-4592 + Alpelisib; first compound 0.253 µM
  relative viability: 0.46
FG-4592 + Alpelisib; first compound 0.8 µM
  relative viability: 0.571
FG-4592 + Alpelisib; first compound 2.53 µM
  relative viability: 0.517
FG-4592 + Alpelisib; first compound 8 µM
  relative viability: 0.444

## NCI-H520
IU1-47 + Vorinostat; first compound 0.08 µM
  relative viability: 0.783
IU1-47 + Vorinostat; first compound 0.253 µM
  relative viability: 0.671
IU1-47 + Vorinostat; first compound 0.8 µM
  relative viability: 0.681
IU1-47 + Vorinostat; first compound 2.53 µM
  relative viability: 0.685
IU1-47 + Vorinostat; first compound 8 µM
  relative viability: 0.589
IU1-47 + Decitabine; first compound 0.08 µM
  relative viability: 0.484
IU1-47 + Decitabine; first compound 0.253 µM
  relative viability: 0.507
IU1-47 + Decitabine; first compound 0.8 µM
  relative viability: 0.469
IU1-47 + Decitabine; first compound 2.53 µM
  relative viability: 0.513
IU1-47 + Decitabine; first compound 8 µM
  relative viability: 0.416
FG-4592 + Lapatinib; first compound 0.08 µM
  relative viability: 0.754
FG-4592 + Lapatinib; first compound 0.253 µM
  relative viability: 0.758
FG-4592 + Lapatinib; first compound 0.8 µM
  relative viability: 0.828
FG-4592 + Lapatinib; first compound 2.53 µM
  relative viability: 0.793
FG-4592 + Lapatinib; first compound 8 µM
  relative viability: 0.721
FG-4592 + Alpelisib; first compound 0.08 µM
  relative viability: 0.908
FG-4592 + Alpelisib; first compound 0.253 µM
  relative viability: 0.972
FG-4592 + Alpelisib; first compound 0.8 µM
  relative viability: 0.952
FG-4592 + Alpelisib; first compound 2.53 µM
  relative viability: 0.93
FG-4592 + Alpelisib; first compound 8 µM
  relative viability: 0.74

## NCI-H596
IU1-47 + Vorinostat; first compound 0.08 µM
  relative viability: 0.715
IU1-47 + Vorinostat; first compound 0.8 µM
  relative viability: 0.662
IU1-47 + Vorinostat; first compound 2.53 µM
  relative viability: 0.658
IU1-47 + Vorinostat; first compound 8 µM
  relative viability: 0.587
IU1-47 + Decitabine; first compound 0.08 µM
  relative viability: 1.05
IU1-47 + Decitabine; first compound 0.8 µM
  relative viability: 1.03
IU1-47 + Decitabine; first compound 2.53 µM
  relative viability: 1.09
IU1-47 + Decitabine; first compound 8 µM
  relative viability: 0.977
FG-4592 + Lapatinib; first compound 0.08 µM
  relative viability: 1.04
FG-4592 + Lapatinib; first compound 0.253 µM
  relative viability: 1.01
FG-4592 + Lapatinib; first compound 2.53 µM
  relative viability: 1.02
FG-4592 + Lapatinib; first compound 8 µM
  relative viability: 0.847
FG-4592 + Alpelisib; first compound 0.08 µM
  relative viability: 0.418
FG-4592 + Alpelisib; first compound 0.253 µM
  relative viability: 0.482
FG-4592 + Alpelisib; first compound 2.53 µM
  relative viability: 0.499
FG-4592 + Alpelisib; first compound 8 µM
  relative viability: 0.527

## NCI-H647
IU1-47 + Vorinostat; first compound 0.08 µM
  relative viability: 0.519
IU1-47 + Vorinostat; first compound 0.253 µM
  relative viability: 0.587
IU1-47 + Vorinostat; first compound 0.8 µM
  relative viability: 0.691
IU1-47 + Vorinostat; first compound 2.53 µM
  relative viability: 0.917
IU1-47 + Vorinostat; first compound 8 µM
  relative viability: 0.726
IU1-47 + Decitabine; first compound 0.08 µM
  relative viability: 0.454
IU1-47 + Decitabine; first compound 0.253 µM
  relative viability: 0.487
IU1-47 + Decitabine; first compound 0.8 µM
  relative viability: 0.462
IU1-47 + Decitabine; first compound 2.53 µM
  relative viability: 0.39
IU1-47 + Decitabine; first compound 8 µM
  relative viability: 0.4
FG-4592 + Lapatinib; first compound 0.08 µM
  relative viability: 1.13
FG-4592 + Lapatinib; first compound 0.253 µM
  relative viability: 1.01
FG-4592 + Lapatinib; first compound 0.8 µM
  relative viability: 1.23
FG-4592 + Lapatinib; first compound 2.53 µM
  relative viability: 1.08
FG-4592 + Lapatinib; first compound 8 µM
  relative viability: 1.04
FG-4592 + Alpelisib; first compound 0.08 µM
  relative viability: 1.24
FG-4592 + Alpelisib; first compound 0.253 µM
  relative viability: 1.07
FG-4592 + Alpelisib; first compound 0.8 µM
  relative viability: 1.17
FG-4592 + Alpelisib; first compound 2.53 µM
  relative viability: 1.24
FG-4592 + Alpelisib; first compound 8 µM
  relative viability: 0.796
